# Laboratory results as given in paper PMC10535379 (Viruses, 2023).
# Entries after “also recorded” stand apart in the source; their conditions may differ. Structures can show the parent of a compound that is named as a salt. Where two headings read alike, the source gives them in different places.
# Tests used:
# [1] = tested on: FMDV serotype A (NP05); assay: microbe, parasite or virus in culture; type: cell-based, foot-and-mouth disease virus; settings: for EC50: Foot-and-mouth disease virus, BHK-21, read-out: EC50 Co-Treatment
# [2] = tested on: FMDV serotype A (NP05); assay: microbe, parasite or virus in culture; type: cell-based, foot-and-mouth disease virus; settings: for EC50: Foot-and-mouth disease virus, BHK-21, read-out: EC50 Pre-Treatment
# [3] = tested on: FMDV serotype A (NP05); type: cell-based, foot-and-mouth disease virus
# [4] = tested on: FMDV serotype A (NP05); type: cell-based, foot-and-mouth disease virus; settings: for Virucidal effect: 50 µM, 0 min
# [5] = tested on: FMDV serotype A (NP05); type: cell-based, foot-and-mouth disease virus; remark: listed apart in the source
# [6] = target: FMDV 3Cpro (Foot-and-mouth disease virus, UniProt P03306); assay: cell-based
# [7] = tested on: BHK-21 cells; settings: hamster
# [8] = tested on: HEK-293T cells; settings: human
# [9] = tested on: FMDV; settings: cited from earlier work
# [10] = in vitro; settings: hamster
# [11] = tested on: FMDV serotype A (NP05); assay: in vitro; settings: hamster
# [12] = tested on: FMDV serotype A (NP05); assay: microbe, parasite or virus in culture; settings: Foot-and-mouth disease virus, BHK-21, read-out: EC50 Post Entry
# [13] = tested on: FMDV serotype A (NP05)
# [14] = target: carboxypeptidase B; settings: cited from earlier work
# [15] = tested on: human respiratory syncytial virus (RSV); settings: read-out: IC50 against RSV; cited from earlier work
# [16] = tested on: HEP-2 cells; settings: human; cited from earlier work
# [17] = tested on: Saccharomyces cerevisiae; settings: cited from earlier work
# [18] = tested on: Schizosaccharomyces pombe; settings: cited from earlier work
# [19] = HEK-293T, read-out: Inhibition of FMDV 3Cpro
# Sequence of FMDV 3Cpro (P03306 1650-1862 limits assumed): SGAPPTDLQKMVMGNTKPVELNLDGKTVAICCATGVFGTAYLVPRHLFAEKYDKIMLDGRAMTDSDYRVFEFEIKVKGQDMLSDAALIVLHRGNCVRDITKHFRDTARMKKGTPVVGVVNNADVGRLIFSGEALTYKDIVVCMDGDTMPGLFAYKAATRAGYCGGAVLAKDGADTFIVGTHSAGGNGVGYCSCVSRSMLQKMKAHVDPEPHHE
structure (smiles),measurement,setting,value
"N#Cc1cc(-c2ccccc2)[nH]c1-c1nccc2ccccc12 [NSC116640, 2-isoquinolin-1-yl-5-phenyl-1H-pyrrole-3-carbonitrile]",EC50,[1],5.74 ± 0.23 µM
same,EC50,[2],7.27 ± 0.86 µM
same,Viral load (viral copy number) reduction,[3],reduce the viral loads in a dose-dependent manner
same,Reduction of viral titers,[4],1.00–2.27 log TCID50/mL
same,Number of viruses,[5],slightly increased
same,Virus yield (% of viral copy numbers),[5],0–10%
same,Concentration required for 80% inhibition of FMDV 3Cpro,[6],more than 40 µM
same,IC50,[6],10.8 µM
same,MNTD90 (maximum non-toxic dose),[7],50 µM
same,MNTD90 (maximum non-toxic dose),[8],50 µM
same,Potent activity in StopGo luciferase anti-FMDV screen,[9],28.18 µM
same,CC50,[10],210.7 ± 0.17 µM
same,selectivity ratio,[11],73.2
same,EC50,[12],2.88 ± 0.17 µM
"COc1cc(/C=N/Nc2nc3c([nH]2)c(=O)n(C)c(=O)n3C)ccc1O [NSC64672, 8-[(2E)-2-[(4-hydroxy-3-methoxyphenyl)methylidene]hydrazinyl]-1,3-dimethyl-7H-purine-2,6-dione]",EC50 Co-Treatment,[1],I
same,EC50 Pre-Treatment,[2],I
same,EC50 Post Entry,[13],I
same,CC50,[10],130 ± 2.3 µM
"Oc1ccccc1-c1nc2c3ccccc3c3ccccc3c2[nH]1 [NSC332670, 6-(1,3-Dihydrophenanthro[9,10-d]imidazol-2-ylidene)cyclohexa-2,4-dien-1-one]",EC50,[1],2.04 ± 0.02 µM
same,EC50,[2],7.18 ± 0.98 µM
same,Viral load (viral copy number) reduction,[3],reduce the viral loads in a dose-dependent manner
same,Reduction of viral titers,[4],1.17–2.27 log TCID50/mL
same,Inhibition effect,[5],reduced; also recorded: completely lost
same,Viral inhibition,[5],great inhibition
same,IC50,[6],4.21 µM
same,inhibition at 10 µM,[6]; [19],~90%
same,inhibition at 40 µM,[6]; [19],100%
same,MNTD90 (maximum non-toxic dose),[7],50 µM
same,MNTD90 (maximum non-toxic dose),[8],50 µM
same,IC50,[14],1550 µM
same,IC50,[15],11 µM
same,CC50,[10],65.82 ± 0.06 µM
same,selectivity ratio,[11],11.1
same,CC50,[16],15.3 µM
same,EC50,[12],5.92 ± 0.2 µM
"N#CC(c1ccccc1)N(CCCCCCN(C(=O)c1ccccc1)C(C#N)c1ccccc1)C(=O)c1ccccc1 (stereo not shown) [NSC681744, N-[6-[benzoyl-[cyano(phenyl)methyl]amino]hexyl]-N-[cyano(phenyl)methyl]benzamide]",EC50,[1],4.83 ± 0.08 µM
same,EC50 Pre-Treatment,[2],I
same,Virucidal effect,[4],good inhibition at 0 min
same,Inhibition of Saccharomyces cerevisiae,[17],none of them could inhibit
same,Inhibition of Schizosaccharomyces pombe,[18],none of them could inhibit
same,CC50,[10],124 ± 0.5 µM
"O=[N+]([O-])c1ccccc1/C=C/C=N/N=C/c1ccccc1O [NSC119805, 2-[(E)-[(E)-[(E)-3-(2-nitrophenyl)prop-2-enylidene]hydrazinylidene]methyl]phenol]",EC50 Co-Treatment,[1],I
same,EC50 Pre-Treatment,[2],I
same,EC50 Post Entry,[13],I
same,CC50,[10],82.45 ± 0.4 µM
"Cc1ccc([N+](=O)[O-])cc1NC(=O)c1cccc([N+](=O)[O-])c1O [NSC79451, 2-Hydroxy-N-(2-methyl-5-nitrophenyl)-3-nitrobenzamide]",EC50,[1],1.56 ± 0.03 µM
same,EC50 Pre-Treatment,[2],I
same,Virucidal effect,[4],good inhibition at 0 min
same,Inhibition of Saccharomyces cerevisiae,[17],none of them could inhibit
same,Inhibition of Schizosaccharomyces pombe,[18],none of them could inhibit
same,CC50,[10],32.79 ± 0.3 µM
"CCN(CC)CCCC(C)NC(=O)c1ccc2c(c1)C(=O)c1ccccc1C2=O (stereo not shown) [NSC331757, N-[5-(diethylamino)pentan-2-yl]-9,10-dioxoanthracene-2-carboxamide;hydrochloride]",EC50 Co-Treatment,[1],I
same,EC50 Pre-Treatment,[2],I
same,EC50 Post Entry,[13],I
same,CC50,[10],62.8 ± 0.87 µM
